Earlier results in article PMC10747602, “Dose Response, Dosimetric, and Metabolic Evaluations of Replacement PFAS Perfluoro-(2,5,8-trimethyl-3,6,9-trioxadodecanoic) Acid (HFPO-TeA)” (Toxics, 2023).
Like-named read-outs stand apart in the source and are kept apart here.

Experiments:
[1] = male mice, 2.5 mg/kg/day orally for 28 days; cited from earlier work
[2] = set-up: method as in PMID 21948869, PMID 36309054; conditions: cited from earlier work
[3] = set-up: method as in PMID 18661093; conditions: male rats, 5 mg/kg/day orally for 28 days; cited from earlier work

O=C(O)C(F)(F)C(F)(F)C(F)(F)C(F)(F)C(F)(F)C(F)(F)C(F)(F)F [PFOA, perfluorooctanoic acid]
Kp [1]: 1.54
underestimation of Css values by previous IVIVE evaluations [2]: > 100 ×
Kp [3]: 5.88
